From patent US5387710A, “Ethanolamine derivatives having sympathomimetic and anti-pollakiuria activities” (Fujisawa Pharmaceutical Co., Ltd., priority 1992, dated 1995)
pIC50: −log10 of the molar value. Counter-ions that a name gives are not always drawn.

Key:
[1] = test system: isolated rat distal colon; assay: Effect on isolated rat distal colon (spontaneous contractions, organ bath); format: cell-based; conditions: 0.5 h, isolated distal colon strip of male SD rats, Tyrode solution 37° C., observed over 30 minutes
Method: Effect on isolated rat distal colon:
Male SD rats (180~230 g) were used. Animals were fasted for 24 hours prior to experiment. Distal colon was removed immediately after sacrifice and placed in an organ bath containing 25 ml Tyrode solution aerating with 95% O2, 5% CO2 at 37° C. The strip was mounted under 0.5 g tension and spontaneous contractions were recorded isometrically. After the mobility was of a uniform size, test compound was added to an organ bath and the contractions were observed over a 30 minutes period. Effect of test compound was calculated by comparing contractions before and after test compound.

[2] = test system: isolated non-pregnant rat uterus; assay: Effect on isolated non-pregnant rat uterus (spontaneous contractions, organ bath); format: cell-based; conditions: 20 min, isolated uterine horn strip of estradiol-treated female SD rats, Locke solution 37° C., observed over 20 minutes
Method: Effect on isolated non-pregnant rat uterus:
Female SD rats (150~180 g) were used. 48 and 24 hours prior to use, rats were given estradiol (ovahormon benzoat: Trademark, Teikoku Hormone Mfg. Co., Ltd.) subcutaneously at a dose of 40 μg/rat to induce oestrus. The animals were killed and uterine horns were removed. Each strip was placed in an organ bath containing 25 ml Locke solution aerating with 95% O2, 5% CO2 at 37° C. under 1 g tension. Contractions were recorded isometrically. After the spontaneous contractions were of a uniform size, test compound was added to organ bath. The motility was observed over a 20 minutes period. Effect of test compound was calculated by comparing contractions before and after test compound.

| Compound | pIC50 [1] | pIC50 [2] |
| --- | --- | --- |
| CCOC(=O)COc1ccc2c(c1)C[C@H](NC[C@H](O)c1cccc(Cl)c1)CCC2 [3-2), (1R,6'R)-2-[(3-Ethoxycarbonylmethoxy-6,7,8,9-tetrahydro-5H-benzocyclohepten-6-yl)amino]-1-(3-chlorophenyl)ethanol] | 9.18 | 6.62 |
| CCOC(=O)COc1ccc2c(c1)CC(NC[C@H](O)c1cccc(Cl)c1)CCC2 (mixture of isomers) [Example 1, (1R,6'R)- and (1R,6'S)-2-[(3-ethoxycarbonyl-methoxy-6,7,8,9-tetrahydro-5H-benzocyclohepten-6-yl)amino]-1-(3-chlorophenyl)ethanol hydrochloride] | 9.17 | 6.70 |
| CCOC(=O)COc1ccc2c(c1)C[C@@H](NC[C@H](O)c1cccc(Cl)c1)CCC2 [2-3), (1R,6'S)-2-[(3-Ethoxycarbonylmethoxy-6,7,8,9-tetrahydro-5H-benzocyclohepten-6-yl)amino]-1-(3-chlorophenyl)ethanol hydrochloride] | 9.08 | 6.36 |
